# Results from patent US20240076347A1, “METHODS FOR PREVENTING FUNGAL INFECTIONS” (Cidara Therapeutics, Inc., priority 2016, published 2024).
# Numbered stars: 1 amine (or outer) side, 2 acyl side, 3 side chain; on linkers, the order of the positions; unused ones are H or OH. Bridge positions count the residues as written; N and C are the ends. Square brackets hold non-standard residues; d marks the D form. Peptide text beside a SMILES is read from it. * marks the point of attachment. hTyr(3S-OH,4S-OH,3'-OSO3H) = N[C@H](C(=O)O)[C@H](O)[C@@H](O)c1ccc(O)c(OS(=O)(=O)O)c1; Orn(4R-OH,5R-OH) = O=C([C@H](C[C@@H](O)[C@@H](O)N[*:3])N[*:1])[*:2]; Pro(3S-OH,4S-Me) = C[C@H]1CN[C@H](C(=O)O)[C@H]1O; X2 = CCCCCOc1ccc(-c2cc(-c3ccc(C(=O)*)cc3)no2)cc1; Gln(3R-OH) = NC(=O)C[C@@H](O)[C@H](N)C(=O)O; Hyp = O=C(O)[C@@H]1C[C@@H](O)CN1
# Columns and labels:
# [1] = test system: Aspergillus fumigatus (strain AF293); test: Murine model of pulmonary aspergillosis (Example 9), survival and lung burden; type: in vivo; conditions: for Group Geometric mean / Log10 Group Geometric mean / Log10 reduction from vehicle control: terminal lung burden
# Experimental: Animal Strain and Housing. Mice used in these studies were supplied by Charles River (Margate UK) and were specific pathogen free. The strain of mice used was ICR (also known as CD1 Mice) which is a well characterized outbred murine strain. Male mice were 11-15 g on receipt at our facility and allowed to acclimatize for at least seven days.
# Immunosuppression. Mice were immunosuppressed on Day −4 with 150 mg/kg cyclophosphamide IP, and on Day −1 with 150 mg/kg cyclophosphamide IP and 175 mg/kg cortisone acetate SC. To prevent bacterial infection due to the immunosuppression mice were given 50 mg/kg/day ceftazidime.
# Preparation of Organism and Infection. A. fumigatus strain AF293 inoculum was prepared from spore cultures grown on Sabouraud Dextrose agar (SAB) containing 50 μg/mL chloramphenicol (SABC) in vented tissue culture flasks. Following incubation for 7-10 days at 30° C., spore cultures were washed in sterile phosphate buffered saline (PBS) containing 0.05% Tween 80. Spore count was determined using a haemocytometer and spores were diluted in PBS to ˜6.9×10^6 CFU/mL. Inoculum concentration was confirmed by quantitative culture onto SABC agar. Neutropenic mice lungs were infected with 0.04 mL (0.02 mL/nares) of ˜6.9×10^6 CFU/mL (˜2.8×10^5 cfu/mouse) of A. fumigatus strain AF293 by intranasal (IN) instillation under temporary 2.5% isoflurane induced anesthesia.
# Preparation of Test Articles. Micafungin was provided as a 50 mg vial (Lot 02323002, expiry 08/2017) and was prepared as per manufacturer instructions by adding 5 mL saline for injection (SFI) directly into the vial to make a 10 mg/mL stock solution. This solution was then diluted further in SFI to a working concentration of 0.2 mg/mL. The compound was administered IP at 10 mL/kg to achieve a 2 mg/kg dose. It was prepared fresh once and stored at 4° C. between doses.
# Test article CD101 stock was prepared at 2 mg/mL in 10% DMSO/1% Tween 20 diluent. A clear non particulate solution was obtained following gentle mixing. The stock was kept at 4° C. until required. Study doses of 5 mg/kg (0.5 mg/mL) and 10 mg/kg (1 mg/mL) were prepared from the 2 mg/mL stock as required by diluting in 10% DMSO/1% Tween 20 diluent. The 2 mg/mL stock was used undiluted for the 20 mg/kg study dose. All doses were administered IP at 10 mL/kg.
# Treatment. For this study, treatments were initiated on day five pre-infection according to treatment groups outlined in Table 15. A total of 78 mice (six mice per treatment group) were used in the study.
# Endpoints. The primary endpoint for this study was survival within agreed ethical limits (>20% weight loss, severe hypothermia <34° C., inability to reach food or drink, severe hunching). Mice were monitored by daily weight measurements with observations as frequently as clinical condition required. Mice presenting with severe clinical deterioration were humanely euthanized using an overdose of pentobarbitone administered by IP injection following clinical assessment and the time of death was recorded. Animal carcasses were stored at −20° C. for assessment of burden. Ten days post infection all surviving animals were weighed and had their clinical condition assessed prior to being euthanized. Final survival numbers were recorded and analyzed as described below and carcasses frozen at −20° C. prior to further processing.
# A secondary endpoint for the study was terminal lung tissue burden. Immediately following confirmation of death, carcasses were frozen at −20° C. prior to tissue dissection and processing. The frozen carcasses were thawed at room temperature and the lungs removed and placed into pre-weighed bead-beating tubes containing 2 mL of PBS and subjected to mechanical disruption. Organ homogenates were diluted further in PBS and quantitatively cultured for A. fumigatus onto SABC and incubated at 30° C. for 24-48 hours. […]
# Candida albicans SC5314 = test: Immunocompetent DBA/2 mouse model of disseminated candidiasis, treatment, kidney CFU; type: in vivo; conditions: 24 hr
# Experimental: The efficacy of CD101 SC was studied in an immunocompetent DBA/2 mouse model of disseminated candidiasis. Mice (5/grp) were challenged with Candida albicans SC5314 (ATCC: MYA-2876, fluconazole-sensitive human clinical isolate shown to be pathogenic in mice) via IV injection (100 μL, 5.0 log CFU/mouse) and treated with CD101 SC (1, 3 or 10 mg/kg). Micafungin via IP administration was tested as a positive control at the same 3 doses. At 24 hours following challenge, kidneys were harvested and processed for CFU enumeration. All comparisons were made between the treatment and time-matched vehicle groups.
# A. fumigatus AF293 = test: Pulmonary aspergillosis in neutropenic ICR mice (Examples 14, 15), prophylaxis, survival; type: in vivo, Aspergillus fumigatus; conditions: 5 mg/kg (human-equivalent 100 mg)
# Experimental: Pulmonary aspergillosis: ICR mice (10/grp) were made neutropenic by cyclophosphamide on Day −4 (150 mg/kg), and CPM/cortisone on Day −1 (150/175 mg/kg). Intranasal infection with A. fumigatus AF293 (10^5 CFU/mouse) on Day 0. Prophylaxis CD101 as a single dose (IP; 5, 10, 20 mg/kg) or posaconazole (PO; 2 and 10 mg/kg) 1 day prior to infection. Survival monitored for 10 days.
# Pulmonary aspergillosis: ICR mice (10/grp) were made neutropenic by cyclophosphamide on Day −4 (150 mg/kg), and cyclophosphamide/cortisone was given on Day −1 (150/175 mg/kg). Intranasal challenge with A. fumigatus AF293 (10^5 CFU/mouse) was initiated on Day 0 and prophylaxis with CD101 as a single dose (IP; 5, 10, 20 mg/kg) or posaconazole (PO; 2 and 10 mg/kg) was started 1 day prior to infection. Survival was monitored for 10 days.
# [2] = 2 mg/kg IP Day 0 (1 h post infection)
smiles,measurement,setting,value
"CCCCCOc1ccc(-c2cc(-c3ccc(C(=O)N[C@H]4C[C@@H](O)[C@@H](O)NC(=O)[C@@H]5[C@@H](O)[C@@H](C)CN5C(=O)[C@H]([C@H](O)CC(N)=O)NC(=O)[C@H]([C@H](O)[C@@H](O)c5ccc(O)c(OS(=O)(=O)O)c5)NC(=O)[C@@H]5C[C@@H](O)CN5C(=O)[C@H]([C@@H](C)O)NC4=O)cc3)no2)cc1 [Micafungin, micafungin, reference compound] (X2-[Orn(4R-OH,5R-OH)]T[Hyp][hTyr(3S-OH,4S-OH,3'-OSO3H)][Gln(3R-OH)][Pro(3S-OH,4S-Me)]; lactam 1-C)",Mean Survival,[1]; [2],75.3 h
same,Median Survival,[1]; [2],73.3 h
same,Mean Survival,[1]; 2 mg/kg IP Day −1,64.7 h
same,Median Survival,[1]; 2 mg/kg IP Day −1,64.7 h
same,Group Geometric mean,[1]; 2 mg/kg IP Day 0,1.08 × 10^4 CFU/g
same,Log10 Group Geometric mean,[1]; 2 mg/kg IP Day 0,4.03 CFU/g
same,Log10 reduction from vehicle control,[1]; 2 mg/kg IP Day 0,−0.26 CFU/g
same,Group Geometric mean,[1]; 2 mg/kg IP Day −1,4.34 × 10^4 CFU/g
same,Log10 Group Geometric mean,[1]; 2 mg/kg IP Day −1,4.64 CFU/g
same,Log10 reduction from vehicle control,[1]; 2 mg/kg IP Day −1,−0.86 CFU/g
same,kidney CFU,Candida albicans SC5314; 10 mg/kg IP only,complete clearance
same,kidney CFU,"Candida albicans SC5314; 1, 3 and 10 mg/kg IP",good dose response in CFU reduction
same,survival rate,A. fumigatus AF293,no survivors
